Measured values: publication PMC9054634 (RSC Advances, 2020)

Biological target: E. coli β-glucuronidase (GUS) (Escherichia coli, UniProt P05804)
Test: pNPG hydrolysis by purified GUS, UPLC-UV, Lineweaver-Burk kinetics
Type: biochemical

Sequence of E. coli β-glucuronidase (GUS) (P05804 whole entry): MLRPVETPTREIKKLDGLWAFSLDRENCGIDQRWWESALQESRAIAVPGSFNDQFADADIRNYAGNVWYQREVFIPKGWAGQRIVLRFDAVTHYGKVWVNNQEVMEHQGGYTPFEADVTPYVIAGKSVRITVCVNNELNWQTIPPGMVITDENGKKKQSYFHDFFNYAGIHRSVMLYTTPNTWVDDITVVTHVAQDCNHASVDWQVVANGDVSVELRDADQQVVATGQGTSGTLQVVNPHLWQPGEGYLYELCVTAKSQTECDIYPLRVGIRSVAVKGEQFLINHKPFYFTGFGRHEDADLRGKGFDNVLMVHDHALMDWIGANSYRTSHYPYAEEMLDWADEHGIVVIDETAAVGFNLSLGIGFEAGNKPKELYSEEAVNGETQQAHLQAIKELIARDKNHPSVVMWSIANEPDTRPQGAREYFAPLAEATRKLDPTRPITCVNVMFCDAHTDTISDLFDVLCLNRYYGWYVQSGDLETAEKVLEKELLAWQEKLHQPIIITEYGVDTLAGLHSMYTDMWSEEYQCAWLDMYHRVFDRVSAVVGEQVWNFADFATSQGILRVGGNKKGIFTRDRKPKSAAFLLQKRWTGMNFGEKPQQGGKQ

Ki | SMILES
31.4 µM | C[C@]12CC[C@@H]3c4ccc(O)cc4CC[C@H]3[C@@H]1CC[C@@H]2O [E2, Estradiol]
16.6 µM | C=CCc1ccc(O)c(-c2cc(CC=C)ccc2O)c1 [Mag, Magnolol]
56.9 µM | CN1CCN(CCCN2c3ccccc3Sc3ccc(C(F)(F)F)cc32)CC1 [TFP, Trifluoperazine]
